From patent US8895585B2, “Nicotinamide derivative or salt thereof” (FUJIFILM Corporation, priority 2010, dated 2014)
Counter-ions that a name gives are not always drawn. Like-named read-outs stand apart in the source and are kept apart here.

How the values were obtained:
[1] = tested on: THP-1 cells; assay: TNFα generation assay; format: cell-based, human; details: Homo sapiens
Summary of the method: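 THP-1 cells differentiated to macrophage-like cells with 10 ng/ml IFN-γ for 2 days, preincubated with compound 30 min at room temperature, then cultured 7 h on plates coated with human IgG (10 μg/ml). Secreted TNFα measured by ELISA or AlphaLISA.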

[2] = target: T1, glutathione S-transferase (GST)-fused full-length human Syk protein (Homo sapiens, UniProt P43405); assay: Syk enzyme assay; format: biochemical
T1 construct: (GST)-fused full-length human Syk protein; GST (glutathione S-transferase); purchased Carna Biosciences
Summary of the method: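 IC50 values come from a time-resolved FRET readout (615 and 665 nm) of substrate phosphorylation, measured after an EDTA stop and 1 h antibody binding. The kinase reaction ran 40 min at room temperature with 27 μM ATP and 0.4 μM biotin-peptide, following a 15 min compound preincubation with baculovirus-made GST-full-length human Syk.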

[3] = THP-1, THP-1 cells, Table 22, read-out: IC50 in TNFα generation assay
[4] = Syk enzyme assay, Test Example 1, read-out: IC50 of Syk-inhibitory activity

Row | SMILES | IC50 [1, 3] [nM] | IC50 [2, 4] [nM] | IC50 ([1]; THP-1, 7 h, IFN-γ-differentiated THP-1 cells on human IgG-coated plate, cultured 7 hours, read-out: TNFα generation inhibitory activity (IC50)) [nM] | IC50 ([2]; read-out: Syk-inhibitory activity (IC50)) [nM]
1 | CC[C@H](N)[C@@H](CC)Nc1nc(Nc2cnc(C)c(-n3nccn3)c2)c(C(N)=O)cc1F [Example 006-380, 6-(((3R,4S)-4-aminohexan-3-yl)amino)-5-fluoro-2-((6-methyl-5-(2H-1,2,3-triazol-2-yl)pyridin-3-yl)amino)nicotinamide] | 65 to 130 | 10 to 50 | – | –
2 | COCCOc1cc(Nc2nc(N[C@H](CC(C)C)[C@H](C)N)c(F)cc2C(N)=O)ccn1 [Example 006-411, 6-(((2S,3R)-2-amino-5-methylhexan-3-yl)amino)-5-fluoro-2-((2-(2-methoxyethoxy)pyridin-4-yl)amino)nicotinamide] | 130 to 200 | < 10 | – | –
3 | CC(C)C[C@H](CN)Nc1nc(Nc2ccc3scnc3c2)c(C(N)=O)cc1F [Example 006-147, (R)-6-((1-amino-4-methylpentan-2-yl)amino)-2-(benzo[d]thiazol-5-ylamino)-5-fluoronicotinamide] | 130 to 200 | < 10 | – | –
4 | CC(C)C[C@H](CN)Nc1nc(Nc2ccc3cccnc3c2)c(C(N)=O)cc1F [Example 006-228, (R)-6-((1-amino-4-methylpentan-2-yl)amino)-5-fluoro-2-((quinolin-7-yl)amino)nicotinamide] | 130 to 200 | < 10 | – | –
5 | CCCC[C@H](CN)Nc1nc(Nc2ccc3cnn(C)c3c2)c(C(N)=O)cc1F [Example 006-360, (R)-6-((1-aminohexan-2-yl)amino)-5-fluoro-2-((1-methyl-1H-indazol-6-yl)amino)nicotinamide] | 65 to 130 | < 10 | – | –
6 | CCOc1ncc(Nc2nc(N[C@@H]3CCCC[C@@H]3N)c(F)cc2C(N)=O)cc1-n1nccn1 [Example 006-495, 6-(((1R,2S)-2-aminocyclohexyl)amino)-2-((6-ethoxy-5-(2H-1,2,3-triazol-2-yl)pyridin-3-yl)amino)-5-fluoronicotinamide] | 130 to 200 | < 10 | – | –
7 | CCn1nc(F)c2cc(Nc3nc(NC4CCCCC4N)c(F)cc3C(N)=O)ccc21 (stereo not drawn) [Example 002-197] | 130 to 200 | < 10 | – | –
8 | NC(=O)c1cc(F)c(N[C@@H]2CCCC[C@@H]2N)nc1Nc1cncc2ccccc12 (single isomer, unassigned) [Example 9, 6-(cis-2-aminocyclohexylamino)-5-fluoro-2-(isoquinolin-4-ylamino)nicotinamide•hydrochloride] | – | – | ≤ 200 | ≤ 1000
9 | CCc1nn(CC)c2ccc(Nc3nc(N[C@H](CC)[C@H](C)N)c(F)cc3C(N)=O)cc12 [Example 006-541, 6-(((2S,3R)-2-aminopentan-3-yl)amino)-2-((1,3-diethyl-1H-indazol-5-yl)amino)-5-fluoronicotinamide] | 130 to 200 | < 10 | – | –
10 | NC(=O)c1cc(F)c(N[C@@H]2CCCC[C@@H]2N)nc1Nc1cncc(N2CCCC2)c1 (relative stereo) [Example 004-049] | 130 to 200 | < 10 | – | –
11 | CCn1ncc2c(Nc3nc(N[C@H](C4CC4)[C@H](C)N)c(F)cc3C(N)=O)cccc21 [Example 006-576, 6-(((1R,2S)-2-amino-1-cyclopropylpropyl)amino)-2-((1-ethyl-1H-indazol-4-yl)amino)-5-fluoronicotinamide] | < 65 | < 10 | – | –
12 | CCC[C@@H](Nc1nc(Nc2ccc3cnn(C)c3c2)c(C(N)=O)cc1F)[C@H](C)N [Example 006-359, 6-(((2S,3R)-2-aminohexan-3-yl)amino)-5-fluoro-2-((1-methyl-1H-indazol-6-yl)amino)nicotinamide] | < 65 | < 10 | – | –
13 | CNc1ccc(-c2cncc(Nc3nc(N[C@@H]4CCCC[C@@H]4N)c(F)cc3C(N)=O)c2)cc1 (relative stereo) [Example 004-220, 6-(cis-2-aminocyclohexylamino)-5-fluoro-2-((5-(4-(methylamino)phenyl)pyridin-3-yl)amino)nicotinamide] | 65 to 130 | < 10 | – | –
14 | CC[C@@H](Nc1nc(Nc2cnc3cc(OC)ccc3c2)c(C(N)=O)cc1F)[C@H](C)N [Example 006-190, 6-(((2S,3R)-2-aminopentan-3-yl)amino)-5-fluoro-2-((7-methoxyquinolin-3-yl)amino)nicotinamide] | < 65 | < 10 | – | –
15 | COc1ncc(Nc2nc(N[C@@H]3CCCC[C@@H]3N)c(F)cc2C(N)=O)cc1-n1ccnn1 [Example 006-493, 6-(((1R,2S)-2-aminocyclohexyl)amino)-5-fluoro-2-((6-methoxy-5-(1H-1,2,3-triazol-1-yl)pyridin-3-yl)amino)nicotinamide] | 130 to 200 | 10 to 50 | – | –
16 | NC(=O)c1cc(F)c(N[C@@H]2CCCC[C@@H]2N)nc1Nc1cnc2c([N+](=O)[O-])cccc2c1 [Example 004-005] | 65 to 130 | < 10 | – | –
17 | Cc1cncc(Nc2nc(N[C@H](C)CN)c(F)cc2C(N)=O)c1 [Example 006-101, (R)-6-((1-aminopropan-2-yl)amino)-5-fluoro-2-((5-methylpyridin-3-yl)amino)nicotinamide] | 65 to 130 | 10 to 50 | – | –
18 | NC(=O)c1cc(F)c(NC2CCCCC2N)nc1Nc1ccc2cnn(CC(F)F)c2c1 (stereo not drawn) [Example 002-188] | 65 to 130 | < 10 | – | –
19 | NC(=O)c1cc(F)c(NC2CCCCC2N)nc1Nc1cnc2ncccc2c1 (stereo not drawn) [Example 010-002] | 130 to 200 | 10 to 50 | – | –
20 | CCC[C@@H](Nc1nc(Nc2cnc(C)c(C)c2)c(C(N)=O)cc1F)[C@H](C)N [Example 006-296, 6-(((2S,3R)-2-aminohexan-3-yl)amino)-2-((5,6-dimethylpyridin-3-yl)amino)-5-fluoronicotinamide] | 65 to 130 | < 10 | – | –
21 | NC(=O)c1cc(F)c(N[C@@H]2CCCC[C@@H]2N)nc1Nc1cnc2cc(N3CCOCC3)ccc2c1 (relative stereo) [Example 004-123, 6-(cis-2-aminocyclohexylamino)-5-fluoro-2-((7-morpholinoquinolin-3-yl)amino)-nicotinamide] | 130 to 200 | < 10 | – | –
22 | CCC[C@@H](Nc1nc(Nc2ccc3c(cnn3CCF)c2)c(C(N)=O)cc1F)[C@H](C)N [Example 006-417, 6-(((2S,3R)-2-aminohexan-3-yl)amino)-5-fluoro-2-((1-(2-fluoroethyl)-1H-indazol-5-yl)amino)nicotinamide] | 65 to 130 | < 10 | – | –
23 | NC(=O)c1cc(F)c(N[C@@H]2CCCC[C@@H]2N)nc1Nc1cncc(-c2cccnc2)c1 [Example 004-103] | 65 to 130 | 10 to 50 | – | –
24 | Cc1cc(Nc2nc(N[C@H](C3CCC3)[C@H](C)N)c(F)cc2C(N)=O)cnc1C [Example 006-597, 6-(((1R,2S)-2-amino-1-cyclobutylpropyl)amino)-2-((5,6-dimethylpyridin-3-yl)amino)-5-fluoronicotinamide] | 65 to 130 | < 10 | – | –
25 | CCn1nc(C)c2ccc(Nc3nc(N[C@H](CC4CC4)[C@H](C)N)c(F)cc3C(N)=O)cc21 [Example 006-486, 6-(((2R,3S)-3-amino-1-cyclopropylbutan-2-yl)amino)-2-((1-ethyl-3-methyl-1H-indazol-6-yl)amino)-5-fluoronicotinamide] | 130 to 200 | < 10 | – | –
26 | NC(=O)c1cc(F)c(N[C@@H]2CCCC[C@@H]2N)nc1Nc1cncc(-c2cccs2)c1 (relative stereo) [Example 004-054] | 65 to 130 | < 10 | – | –
27 | CNc1ccc(Nc2nc(NC3CCCCC3N)c(F)cc2C(N)=O)cn1 (stereo not drawn) [Example 002-073] | 130 to 200 | 10 to 50 | – | –
